Experimental data as given in US8349899B1 (Arrowhead Center, Inc., priority 2008, dated 2013).
Like-named read-outs stand apart in the source and are kept apart here.

What was measured:
HCT-15 = assay: NCI60 growth inhibition, Colon HCT-15; assay type: cell-based; details: Homo sapiens
Description: (§1) MSTCO was screened against the NCI60 tumor panel. Cell lines shown above represent lines common to all three screens, and growth inhibition is expressed as the concentration of drug (μM) that achieved 50% growth inhibition.

SNB-19 = assay: NCI60 growth inhibition, Central Nervous System SNB-19; assay type: cell-based; details: Homo sapiens
Description: as §1

RPMI-8226 = assay: NCI60 growth inhibition, Leukemia RPMI-8226; assay type: cell-based; details: Homo sapiens
Description: as §1

LOX IMVI = assay: NCI60 growth inhibition, Melanoma LOX IMVI; assay type: cell-based; details: Homo sapiens
Description: as §1

SF-295 = assay: NCI60 growth inhibition, Central Nervous System SF-295; assay type: cell-based; details: Homo sapiens
Description: as §1

HT29 = assay: NCI60 growth inhibition, Colon HT29; assay type: cell-based; details: Homo sapiens, HT-29
Description: as §1

OVCAR-8 = assay: NCI60 growth inhibition, Ovarian OVCAR-8; assay type: cell-based; details: Homo sapiens
Description: as §1

SF-539 = assay: NCI60 growth inhibition, Central Nervous System SF-539; assay type: cell-based; details: Homo sapiens
Description: as §1

SN12C = assay: NCI60 growth inhibition, Renal SN12C; assay type: cell-based; details: Homo sapiens
Description: as §1

SW-620 = assay: NCI60 growth inhibition, Colon SW-620; assay type: cell-based; details: Homo sapiens
Description: as §1

SR = assay: NCI60 growth inhibition, Leukemia SR; assay type: cell-based; details: Homo sapiens
Description: as §1

CCRF-CEM = assay: NCI60 growth inhibition, Leukemia CCRF-CEM; assay type: cell-based; details: Homo sapiens
Description: as §1

OVCAR-4 = assay: NCI60 growth inhibition, Ovarian OVCAR-4; assay type: cell-based; details: Homo sapiens
Description: as §1

CAKI-1 = assay: NCI60 growth inhibition, Renal CAKI-1; assay type: cell-based; details: Homo sapiens
Description: as §1

COLO 205 = assay: NCI60 growth inhibition, Colon COLO 205; assay type: cell-based; details: Homo sapiens
Description: as §1

HCC-2998 = assay: NCI60 growth inhibition, Colon HCC-2998; assay type: cell-based; details: Homo sapiens
Description: as §1

IGROV1 = assay: NCI60 growth inhibition, Ovarian IGROV1; assay type: cell-based; details: Homo sapiens, IGROV-1
Description: as §1

NCI-H522 = assay: NCI60 growth inhibition, Non-Small Cell Lung NCI-H522; assay type: cell-based; details: Homo sapiens
Description: as §1

NCI-H226 = assay: NCI60 growth inhibition, Non-Small Cell Lung NCI-H226; assay type: cell-based; details: Homo sapiens
Description: as §1

EKVX = assay: NCI60 growth inhibition, Non-Small Cell Lung EKVX; assay type: cell-based; details: Homo sapiens
Description: as §1

NCI-H23 = assay: NCI60 growth inhibition, Non-Small Cell Lung NCI-H23; assay type: cell-based; details: Homo sapiens
Description: as §1

[1] = system: HeLa cervical adenocarcinoma cells; assay: bipolar spindle formation in HeLa cells; assay type: cell-based, human
Description: Biochemical- and cell-based assays were used to evaluate the inhibitory activities of the STLC analogs. Using a commercially available assay from Cytoskeleton, Inc, analogs were assayed for their ability to block the microtubule-activated ATPase activity of recombinant human EG5 motor domain. In parallel, HeLa cells were treated for four hours with a range of concentrations, and then fixed, stained for microtubules, and mitotic cells were scored for spindle bipolarity.

NCI-H322M = assay: NCI60 growth inhibition, Non-Small Cell Lung NCI-H322M; assay type: cell-based; details: Homo sapiens
Description: as §1

HOP-62 = assay: NCI60 growth inhibition, Non-Small Cell Lung HOP-62; assay type: cell-based; details: Homo sapiens
Description: as §1

HL-60(TB) = assay: cells; assay type: cell-based; details: Homo sapiens; Leukemia HL-60(TB)
KM12 = assay: NCI60 growth inhibition, Colon KM12; assay type: cell-based; details: Homo sapiens
Description: as §1

SNB-75 = assay: NCI60 growth inhibition, Central Nervous System SNB-75; assay type: cell-based; details: Homo sapiens
Description: as §1

OVCAR-3 = assay: NCI60 growth inhibition, Ovarian OVCAR-3; assay type: cell-based; details: Homo sapiens
Description: as §1

A549/ATCC = assay: NCI60 growth inhibition, Non-Small Cell Lung A549/ATCC; assay type: cell-based; details: Homo sapiens
Description: as §1

MALME-3M = assay: NCI60 growth inhibition, Melanoma MALME-3M; assay type: cell-based; details: Homo sapiens
Description: as §1

ACHN = assay: NCI60 growth inhibition, Renal ACHN; assay type: cell-based; details: Homo sapiens
Description: as §1

HCT-116 = assay: NCI60 growth inhibition, Colon HCT-116; assay type: cell-based; details: Homo sapiens
Description: as §1

SK-OV-3 = assay: NCI60 growth inhibition, Ovarian SK-OV-3; assay type: cell-based; details: Homo sapiens
Description: as §1

786-0 = assay: NCI60 growth inhibition, Renal 786-0; assay type: cell-based; details: Homo sapiens
Description: as §1

M14 = assay: NCI60 growth inhibition, Melanoma M14; assay type: cell-based
Description: as §1

UO-31 = assay: NCI60 growth inhibition, Renal UO-31; assay type: cell-based; details: Homo sapiens
Description: as §1

SK-MEL-28 = assay: NCI60 growth inhibition, Melanoma SK-MEL-28; assay type: cell-based; details: Homo sapiens
Description: as §1

NCI60 tumor panel = NCI60 tumor panel growth inhibition, whole panel; assay type: cell-based
SF-268 = assay: NCI60 growth inhibition, Central Nervous System SF-268; assay type: cell-based; details: Homo sapiens
Description: as §1

UACC-62 = assay: NCI60 growth inhibition, Melanoma UACC-62; assay type: cell-based; details: Homo sapiens
Description: as §1

SK-MEL-2 = assay: NCI60 growth inhibition, Melanoma SK-MEL-2; assay type: cell-based; details: Homo sapiens
Description: as §1

OVCAR-5 = assay: NCI60 growth inhibition, Ovarian OVCAR-5; assay type: cell-based; details: Homo sapiens
Description: as §1

SK-MEL-5 = assay: NCI60 growth inhibition, Melanoma SK-MEL-5; assay type: cell-based; details: Homo sapiens
Description: as §1

K-562 = assay: NCI60 growth inhibition, Leukemia K-562; assay type: cell-based; details: Homo sapiens, K562
Description: as §1

TK-10 = assay: NCI60 growth inhibition, Renal TK-10; assay type: cell-based; details: Homo sapiens
Description: as §1

MOLT-4 = assay: NCI60 growth inhibition, Leukemia MOLT-4; assay type: cell-based; details: Homo sapiens
Description: as §1

UACC-257 = assay: NCI60 growth inhibition, Melanoma UACC-257; assay type: cell-based; details: Homo sapiens
Description: as §1

U251 = assay: NCI60 growth inhibition, Central Nervous System U251; assay type: cell-based; details: Homo sapiens, U-251
Description: as §1

SMILES: COc1ccc(C(SC[C@H](N)CO)(c2ccccc2)c2ccccc2)cc1 [Compound 1.0, 2-amino-3-[(4-methoxy-phenyl)-diphenyl-methylsulfanyl]-propan-1-ol]
- GI50 (HCT-15): 210 nM
- GI50 (SNB-19): 250 nM
- GI50 (RPMI-8226): 30 nM
- GI50 (LOX IMVI): 490 nM
- GI50 (SF-295): 280 nM
- GI50 (HT29): 340 nM
- GI50 (OVCAR-8): 420 nM
- GI50 (SF-539): 260 nM
- GI50 (SN12C): 320 nM
- GI50 (SW-620): 70 nM
- GI50 (SR): 10 nM
- GI50 (CCRF-CEM): 100 nM
- GI50 (OVCAR-4): 1620 nM
- GI50 (CAKI-1): 450 nM
- GI50 (COLO 205): 80 nM
- GI50 (HCC-2998): 50 nM
- GI50 (IGROV1): 260 nM
- GI50 (NCI-H522): 220 nM
- GI50 (NCI-H226): 2750 nM
- GI50 (EKVX): 510 nM
- GI50 (NCI-H23): 260 nM
- inhibitory activity in the cell-based assay ([1]; HeLa bipolar spindle formation): best performing analog
- IC50 ([1]; Homo sapiens, HeLa, 4 h, read-out: Bipolar spindle formation IC50): 180 nM
- GI50 (NCI-H322M): 110 nM
- GI50 (HOP-62): 510 nM
- GI50 (HL-60(TB)): 190 nM
- GI50 (KM12): 220 nM
- GI50 (SNB-75): 260 nM
- GI50 (OVCAR-3): 200 nM
- GI50 (A549/ATCC): 330 nM
- GI50 (MALME-3M): 360 nM
- GI50 (ACHN): 490 nM
- GI50 (HCT-116): 30 nM
- GI50 (SK-OV-3): 80 nM
- GI50 (786-0): 440 nM
- GI50 (M14; Homo sapiens, Melanoma M14): 20 nM
- increase in activity over STLC (M14; melanoma cell line M14, GI50): 20 fold
- increase in activity over monastrol (M14; melanoma cell line M14, GI50): 1200 fold
- GI50 (UO-31): 1100 nM
- GI50 (SK-MEL-28): 620 nM
- anti-proliferative activity, initial single-dose screen (NCI60 tumor panel; 60 cancer cell lines, single dose 10 μM): promising activity
- average increase in activity over Monastrol (NCI60 tumor panel; GI50, average over cell lines): 143 fold
- average increase in activity over STLC (NCI60 tumor panel; GI50, average over cell lines): 35 fold
- GI50 (NCI60 tumor panel; read-out: average GI50): 360 nM
- GI50 (NCI60 tumor panel; read-out: highest GI50 of the range over the panel): 3000 nM
- GI50 (NCI60 tumor panel; read-out: lowest GI50 of the range over the panel): 20 nM
- GI50 (SF-268): 110 nM
- GI50 (UACC-62): 250 nM
- GI50 (SK-MEL-2): 240 nM
- GI50 (OVCAR-5): 390 nM
- GI50 (SK-MEL-5): 60 nM
- GI50 (K-562): 60 nM
- GI50 (TK-10): 460 nM
- GI50 (MOLT-4): 280 nM
- GI50 (UACC-257): 540 nM
- GI50 (U251): 190 nM
